Measurements as given in US20240382450A1, “COMPOSITION OF B-CAR[…] A STATIN, AND METHODS OF USING SAME” (OrthoTreat Ltd., priority 2021, published 2024).

Legend:
[1] = test system: femoral bone fracture; assay: Bone quality examined after 35 treatment days (decalcified and non-decalcified); type: in vivo, Sprague Dawley rats; settings: following 35 treatment days, none-decalcification
Method: Pseudo-fractures were created by making a trough on one surface of the femoral shaft through one side of the cortex. The compositions were administered locally by daily injection. Animals: Naive male Sprague Dawley rats (SD rats), 12 weeks old, around 350 g. Right leg was treated while the left leg serves as a control (vehicle).
Bone quality was examined after 35 treatment days. For the G1−B+L group, cell proliferation was improved by >44% compared to untreated bone.
Bone endosteal & periosteal proliferation, defect fill and bone quality were evaluated following 35 treatment days of femoral bone fracture with β-caryophyllene (none-decalcification).

[2] = test system: MUTZ-3 cells; settings: MUTZ-3, 24 and 96 hours, tested 0 to 6,561 μM
Method: (§1) In vitro cytotoxicity & proliferation assay (basal) are being performed on human osteoblasts and stem cells monolayers.
As a human primary osteoclast cell is unable to proliferate, MUTZ-3, a human cell line model for osteoclast differentiation is also being used. MUTZ-3 cells are maintained in a 37° C. humidified incubator with 5% CO2 atmosphere. Cells are cultured in Dulbecco's modified Eagle's Medium (DMEM) supplemented with 10% foetal calf serum and 1% of the penicillin streptomycin stock solution.

[3] = test system: Human primary osteoblast cells; settings: osteoblasts, 24 and 96 hours, tested 0 to 6,561 μM
Method: as §1
Human primary osteoblast cells are maintained in a 37° C. humidified incubator with 5% CO2 atmosphere. Cells are cultured in Primary Osteoblast Media containing Primary Osteoblast Culture Supplement and 1% of the penicillin/streptomycin stock solution.

## (−)-β-caryophyllene
[1]
  bone quality: Significant improvement
  defect fill: Significant improvement
  endosteal and periosteal proliferation: Significant improvement
[2]
  concentration without significant cytotoxic effect: up to 27 μM
[3]
  concentration without significant cytotoxic effect: up to 27 μM
